Assay results as given in patent US11707539B2, “FAP-targeted radiopharmaceuticals and imaging agents, and uses related thereto” (Trustees of Tufts College, priority 2020, dated 2023).
Where a SMILES comes first, the peptide text is derived from it.

Columns and labels:
[1] = Radiochemical purity by HPLC on storage at room temperature; format: physicochemical; settings: three days at room temperature
Experimental: The labeling efficiency was analyzed by instant thin layer chromatography (iTLC) and was typically >98%. For iTLC analysis, 1 μL of diluted labeling solution was applied to a strip of iTLC-SA chromatography paper (Agilent P/N A120B12, 114×2.5 mm) and developed in 0.1M citrate buffer (8 cm solvent migration) to assess free ^177Lu (Rf >0.5) and [^177Lu]-6555 (Rf ˜0). The iTLC strips were analyzed using an Eckert & Ziegler AR-2000 Radio-TLC Imaging Scanner. The radiochemical purity was analyzed by high performance chromatography (HPLC) and was typically >90%. Briefly, the product was analyzed using a Phenomenex Luna 3.0 μm C18(2), 100A, 150 mm×4.6 mm column. Eluent A: 50 mM ammonium acetate in water, eluent B: acetonitrile. Gradient: 2% B from 0-5 min; 2% to 26% B from 5-20 min; 26% to 98% B from 20-25 min; 98% to 2% B from 25-26 min; 2% B from 26-30 min. Flow rate: 1.0 mL/min, Radio-HPLC detector: NaI (Eckert & Zeigler FC-1000), UV: 215 nm. The radiochemical purity remained >90% for three days at room temperature.
The above depicted radiopharmaceutical [^177Lu]-6952 can be prepared as described in Example 19 using the radiochemical precursor 6952 (Example 14 above). The labeling efficiency was analyzed by instant thin layer chromatography (iTLC) and was typically >98%. […] The iTLC strips were analyzed using an Eckert & Ziegler AR-2000 Radio-TLC Imaging Scanner. The radiochemical purity was analyzed by high performance chromatography (HPLC) and was typically >90%. Briefly, the product was analyzed using a Phenomenex Luna 3.0 m C18(2), 100A, 150 mm×4.6 mm column. […]
The labeling efficiency was analyzed by instant thin layer chromatography (iTLC) and was typically >95%. […] The iTLC strips were analyzed using an Eckert & Ziegler AR-2000 Radio-TLC Imaging Scanner. The radiochemical purity was analyzed by high performance chromatography (HPLC) and was typically >95%. Briefly, the product was analyzed using a Phenomenex Luna 3.0 m C18(2), 100Å, 150 mm×4.6 mm column. […]
The labeling efficiency was analyzed by instant thin layer chromatography (iTLC) and was typically >95%. […]

[2] = system: HEK-mFAP tumor xenografts; assay: In vivo biodistribution study of [177Lu]-6522, gamma counting; settings: for Mean (% ID/g): i.v.
[3] = system: HEK-mFAP tumor xenografts; assay: Efficacy and survival study, single injection; format: in vivo, mouse; settings: single IV injection
Experimental: The aim of the study was to assess the therapeutic efficacy of a single injection of ^177Lu-PNT2004 ([^177Lu]-6522) by evaluating tumor growth delay and median survival. ^177Lu-PNT2004 ([^177Lu]-6522) was provided in 3 concentrations, ready for injection (80 μL/mouse), and the injected dose was determined using a well counter (Capintec calibration) #430x10.
A total of 30 HEK-mFAP tumor-bearing mice were used for the study.
Mouse health checks were performed throughout the study on a weekly basis including body weight measurements. Tumor growth was monitored weekly with caliper measurements (tumor volume=length×width^2×0.5). Study endpoints include tumor size >2 cm in any dimension, tumor ulceration, mouse is moribund, and >15% body weight lost from the last measurement. Mice were housed 5 to a cage with ad libitum access to food and water in 20° C. ambient temperature, 40%-50% humidity, and 12-hour light/12-hour dark cycle.
The mice were randomized into 5 groups, n=6 mice per group. The treatment compositions (1 through 5 above) were injected IV through the tail vein using a catheter (mounted with a 30 Ga needle). Injected doses were determined using a well counter (Capintec calibration). Tumor growth was monitored weekly with caliper measurements, and the mice were followed for survival.

SMILES: C[C@@H](NC(=O)c1ccc(CNC(=O)CN2CCN3CCN4CCN(CC2)CC(=O)[O][Lu]([O]C(=O)C3)[O]C(=O)C4)cc1)C(=O)N1CCC[C@H]1B(O)O [[^177Lu]-6555]
- radiochemical purity remained [1]: > 90%

SMILES: C[C@@H](NC(=O)[C@H]1CC[C@H](CNC(=O)CN2CCN3CCN4CCN(CC2)CC(=O)[O][Lu]([O]C(=O)C3)[O]C(=O)C4)CC1)C(=O)N1CCC[C@H]1B(O)O [[^177Lu]-6952]
- radiochemical purity remained [1]: > 90%

SMILES: CC(C)[C@H](NC(=O)CNC(=O)CNC(=O)CN1CCN2CCN3CCN(CC1)CC(=O)[O][Lu]([O]C(=O)C2)[O]C(=O)C3)C(=O)N[C@H](C)C(=O)N1CCC[C@H]1B(O)O [[^177Lu]-6522] (HELM PEPTIDE1{[O=C1CN2CCN3CCN(CC(=O)[*:2])CCN(CC2)CC(=O)[O][Lu]([O]1)[O]C(=O)C3].G.G.V.[dA].[OB(O)[C@@H]1CCCN1[*:1]]}$$$$V2.0)
- Mean (% ID/g) ([2]; Blood, 4 h p.i.): 0.3063 % ID/g
- Mean (% ID/g) ([2]; Blood, 24 h p.i.): 0.0085 % ID/g
- Mean (% ID/g) ([2]; Blood, 48 h p.i.): 0.0029 % ID/g
- Mean (% ID/g) ([2]; Blood, 168 h p.i.): 0.0015 % ID/g
- Mean (% ID/g) ([2]; Bone, 4 h p.i.): 1.8037 % ID/g
- Mean (% ID/g) ([2]; Bone, 24 h p.i.): 0.2658 % ID/g
- Mean (% ID/g) ([2]; Bone, 48 h p.i.): 0.4106 % ID/g
- Mean (% ID/g) ([2]; Bone, 168 h p.i.): 0.3959 % ID/g
- Mean (% ID/g) ([2]; Brain, 4 h p.i.): 0.0281 % ID/g
- Mean (% ID/g) ([2]; Brain, 24 h p.i.): 0.0036 % ID/g
- Mean (% ID/g) ([2]; Brain, 48 h p.i.): 0.0033 % ID/g
- Mean (% ID/g) ([2]; Brain, 168 h p.i.): 0.0020 % ID/g
- Mean (% ID/g) ([2]; Heart, 4 h p.i.): 0.1528 % ID/g
- Mean (% ID/g) ([2]; Heart, 24 h p.i.): 0.0332 % ID/g
- Mean (% ID/g) ([2]; Heart, 48 h p.i.): 0.0311 % ID/g
- Mean (% ID/g) ([2]; Heart, 168 h p.i.): 0.0256 % ID/g
- Mean (% ID/g) ([2]; Kidneys, 4 h p.i.): 2.3525 % ID/g
- Mean (% ID/g) ([2]; Kidneys, 4 h p.i., listed as Compound #2): 2.35±0.51 % ID/g
- Mean (% ID/g) ([2]; Kidneys, 24 h p.i.): 0.9585 % ID/g
- Mean (% ID/g) ([2]; Kidneys, 48 h p.i.): 0.5318 % ID/g
- Mean (% ID/g) ([2]; Kidneys, 168 h (day 7) p.i.): 0.1670 % ID/g
- Mean (% ID/g) ([2]; Kidneys, 168 h (day 7) p.i., listed as Compound #2): 0.17±0.02 % ID/g
- Mean (% ID/g) ([2]; Liver, 4 h p.i.): 0.3774 % ID/g
- Mean (% ID/g) ([2]; Liver, 24 h p.i.): 0.1585 % ID/g
- Mean (% ID/g) ([2]; Liver, 48 h p.i.): 0.1237 % ID/g
- Mean (% ID/g) ([2]; Liver, 168 h p.i.): 0.0725 % ID/g
- Mean (% ID/g) ([2]; Lung, 4 h p.i.): 0.3331 % ID/g
- Mean (% ID/g) ([2]; Lung, 24 h p.i.): 0.0306 % ID/g
- Mean (% ID/g) ([2]; Lung, 48 h p.i.): 0.0312 % ID/g
- Mean (% ID/g) ([2]; Lung, 168 h p.i.): 0.0257 % ID/g
- Mean (% ID/g) ([2]; Muscle, 4 h p.i.): 0.4649 % ID/g
- Mean (% ID/g) ([2]; Muscle, 24 h p.i.): 0.0315 % ID/g
- Mean (% ID/g) ([2]; Muscle, 48 h p.i.): 0.0518 % ID/g
- Mean (% ID/g) ([2]; Muscle, 168 h p.i.): 0.0604 % ID/g
- Mean (% ID/g) ([2]; Pancreas, 4 h p.i.): 0.2167 % ID/g
- Mean (% ID/g) ([2]; Pancreas, 24 h p.i.): 0.0347 % ID/g
- Mean (% ID/g) ([2]; Pancreas, 48 h p.i.): 0.0275 % ID/g
- Mean (% ID/g) ([2]; Pancreas, 168 h p.i.): 0.0197 % ID/g
- Mean (% ID/g) ([2]; Skin, 4 h p.i.): 0.9769 % ID/g
- Mean (% ID/g) ([2]; Skin, 24 h p.i.): 0.1158 % ID/g
- Mean (% ID/g) ([2]; Skin, 48 h p.i.): 0.0906 % ID/g
- Mean (% ID/g) ([2]; Skin, 168 h p.i.): 0.0837 % ID/g
- Mean (% ID/g) ([2]; Small intestine, 4 h p.i.): 0.2091 % ID/g
- Mean (% ID/g) ([2]; Small intestine, 24 h p.i.): 0.0580 % ID/g
- Mean (% ID/g) ([2]; Small intestine, 48 h p.i.): 0.0499 % ID/g
- Mean (% ID/g) ([2]; Small intestine, 168 h p.i.): 0.0277 % ID/g
- Mean (% ID/g) ([2]; Spleen, 4 h p.i.): 0.2587 % ID/g
- Mean (% ID/g) ([2]; Spleen, 24 h p.i.): 0.1418 % ID/g
- Mean (% ID/g) ([2]; Spleen, 48 h p.i.): 0.1340 % ID/g
- Mean (% ID/g) ([2]; Spleen, 168 h p.i.): 0.1437 % ID/g
- Mean (% ID/g) ([2]; Stomach, 4 h p.i.): 0.1706 % ID/g
- Mean (% ID/g) ([2]; Stomach, 24 h p.i.): 0.0528 % ID/g
- Mean (% ID/g) ([2]; Stomach, 48 h p.i.): 0.0331 % ID/g
- Mean (% ID/g) ([2]; Stomach, 168 h p.i.): 0.0210 % ID/g
- Mean (% ID/g) ([2]; Tumor, 4 h p.i.): 33.0435 % ID/g
- Mean (% ID/g) ([2]; Tumor, 4 h p.i., listed as Compound #2): 33.04±5.29 % ID/g
- Mean (% ID/g) ([2]; Tumor, 24 h p.i.): 12.9944 % ID/g
- Mean (% ID/g) ([2]; Tumor, 48 h p.i.): 7.6749 % ID/g
- Mean (% ID/g) ([2]; Tumor, 168 h p.i.): 3.9910 % ID/g
- localization in tumor and normal tissue uptake ([2]; up to 168 h p.i.): high localization in tumor xenografts and low normal tissue uptake
- survival benefit ([3]; 15 MBq): did not translate in a survival benefit
- tumor growth delay ([3]; 15 MBq): tumor growth delay was observed
- survival benefit ([3]; 30 MBq): did not translate in a survival benefit
- tumor growth delay ([3]; 30 MBq): tumor growth delay was observed
- survival benefit compared to the vehicle or precursor group ([3]; 60 MBq): statically significant survival benefit
